Patent publication US7192942B2, “Process for production of crystals of 11μ-benzaldoxim-estra-4,9-diene derivatives, crystals obtained thereby and pharmaceutical preparations containing them” (Schering AG, priority 2002, dated 2007)
One block for each compound: values may come before it.

Assays:
[1] = Active ingredient release (dissolution) of 1 mg capsules and tablets; assay type: physicochemical; conditions: 0.3% SDS in water, paddle, 100 rpm
Experimental: The release values were compared in a test medium, which comprises 0.3% SDS in water, with paddle stirrIng, 100 rpm.
Active Ingredient Release:
Active ingredient release measured in 1000 mL water with 0.3% sodium dodecyl sulfate, 100 rpm
Content Determination by HPLC with external calibration
Column: LiChrosphere 5μ RP-18 encapped, 150×3 mm
Eluent: acetonitrile/water=45/55

[2] = in comparison to RU 486 (mifeprison); cited from earlier work
progesterone receptor = molecular target: T1, progesterone receptor (Homo sapiens, UniProt P06401); conditions: in comparison to RU 486; cited from earlier work
T1 sequence (P06401 1-933): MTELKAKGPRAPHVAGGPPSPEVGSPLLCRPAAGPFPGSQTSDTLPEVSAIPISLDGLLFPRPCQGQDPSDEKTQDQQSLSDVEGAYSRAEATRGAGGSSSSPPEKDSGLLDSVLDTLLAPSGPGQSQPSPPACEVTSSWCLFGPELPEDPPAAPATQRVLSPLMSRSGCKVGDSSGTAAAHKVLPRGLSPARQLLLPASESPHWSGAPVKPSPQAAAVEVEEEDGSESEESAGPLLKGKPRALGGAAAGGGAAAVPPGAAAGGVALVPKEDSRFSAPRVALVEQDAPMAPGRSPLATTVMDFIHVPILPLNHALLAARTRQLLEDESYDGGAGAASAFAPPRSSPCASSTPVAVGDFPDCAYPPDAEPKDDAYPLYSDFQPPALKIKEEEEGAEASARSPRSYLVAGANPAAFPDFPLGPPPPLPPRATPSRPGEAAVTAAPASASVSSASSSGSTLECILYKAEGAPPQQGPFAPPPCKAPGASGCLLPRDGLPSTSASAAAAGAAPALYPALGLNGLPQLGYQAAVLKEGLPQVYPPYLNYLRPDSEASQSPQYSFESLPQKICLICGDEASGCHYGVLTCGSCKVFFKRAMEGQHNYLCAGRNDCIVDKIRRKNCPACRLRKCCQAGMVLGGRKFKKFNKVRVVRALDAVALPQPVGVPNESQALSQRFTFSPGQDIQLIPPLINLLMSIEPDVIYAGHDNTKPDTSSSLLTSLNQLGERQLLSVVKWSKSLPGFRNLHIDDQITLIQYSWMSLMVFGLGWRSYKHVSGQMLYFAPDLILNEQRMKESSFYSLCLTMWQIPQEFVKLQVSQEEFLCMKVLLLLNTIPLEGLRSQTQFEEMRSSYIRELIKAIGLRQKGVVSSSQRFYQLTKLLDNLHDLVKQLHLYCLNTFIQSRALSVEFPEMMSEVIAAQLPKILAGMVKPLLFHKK

[3] = molecular target: T2, progesterone receptor (PR) (Homo sapiens, UniProt P06401); conditions: cited from earlier work
T2 sequence (P06401 1-933): T1 sequence (P06401 1-933)

[4] = Stability of medicinal preparations under ICH conditions; assay type: physicochemical; conditions: 40° C., 70% relative humidity; decomposition of carbamate to nitrile
Text: The carbamate functional group of the above-mentioned 11β-benz-aldoxim-estra-4,9-diene derivative decomposes to form a nitrile by splitting off ethylamine and CO2.

[5] = 1 mg capsule, microcrystalline J956, particle diameter X50 3.4 μm, X100 25 μm
[6] = 1 mg capsule, microcrystalline J956, particle diameter X50 5.2 μm, X100 30 μm
[7] = 1 mg capsule, microcrystalline J956, particle diameter X50 6.6 μm, X100 43 μm
[8] = 1 mg capsule, microcrystalline J956, particle diameter X50 8.7 μm, X100 43 μm
[9] = 1 mg capsule, microcrystalline J956, particle diameter X50 14.1 μm, X100 87 μm
[10] = 1 mg tablet, microcrystalline J956, particle diameter X50 10.6 μm, X100 73 μm
[11] = 1 mg capsule with micronized effective ingredient J956
[12] = 1 mg tablet with micronized effective ingredient J956

RELEASE in % 0 min [1, 5]: 0% | RELEASE in % 10 min [1, 5]: 90.7% | RELEASE in % 20 min [1, 5]: 97.3% | RELEASE in % 30 min [1, 5]: 98.1% | RELEASE in % 45 min [1, 5]: 99.9% | RELEASE in % 0 min [1, 6]: 0% | RELEASE in % 10 min [1, 6]: 89.8% | RELEASE in % 20 min [1, 6]: 93.5% | RELEASE in % 30 min [1, 6]: 93.4% | RELEASE in % 45 min [1, 6]: 95.6% | RELEASE in % 0 min [1, 7]: 0% | RELEASE in % 10 min [1, 7]: 93.2% | RELEASE in % 20 min [1, 7]: 95.9% | RELEASE in % 30 min [1, 7]: 96.7% | RELEASE in % 45 min [1, 7]: 96.8% | RELEASE in % 0 min [1, 8]: 0% | RELEASE in % 10 min [1, 8]: 93.5% | RELEASE in % 20 min [1, 8]: 96.7% | RELEASE in % 30 min [1, 8]: 98.5% | RELEASE in % 45 min [1, 8]: 99.7% | RELEASE in % 0 min [1, 9]: 0% | RELEASE in % 10 min [1, 9]: 90.2% | RELEASE in % 20 min [1, 9]: 95.3% | RELEASE in % 30 min [1, 9]: 96.0% | RELEASE in % 45 min [1, 9]: 96.3% | RELEASE in % 0 min [1, 10]: 0% | RELEASE in % 10 min [1, 10]: 73.7% | RELEASE in % 20 min [1, 10]: 90.3% | RELEASE in % 30 min [1, 10]: 91.85% | RELEASE in % 45 min [1, 10]: 96.6%
SMILES: CCNC(=O)ON=Cc1ccc(C2CC3(C)C(CCC3(COC)OC)C3CCC4=CC(=O)CCC4=C23)cc1 (stereo not drawn) [J956, 11β-{4-[(ethylamino-carbonyl)oximinomethyl]phenyl}-17β-methoxy-17α-methoxymethyl-estra-4,9-dien-3-one]
antiglucocorticoid activity [2]: considerably reduced antiglucocorticoid activity | activity at the progesterone receptor (progesterone receptor): same activity as RU 486 | activity in vivo at the progesterone receptor (PR) [3]: both agonistic and also antagonistic activity

RELEASE in % 0 min [1, 11]: 0% | RELEASE in % 10 min [1, 11]: 92.1% | RELEASE in % 20 min [1, 11]: 94.3% | RELEASE in % 30 min [1, 11]: 94.6% | RELEASE in % 45 min [1, 11]: 94.9% | RELEASE in % 0 min [1, 12]: 0% | RELEASE in % 10 min [1, 12]: 92.1% | RELEASE in % 20 min [1, 12]: 94.3% | RELEASE in % 30 min [1, 12]: 94.6% | RELEASE in % 45 min [1, 12]: 94.9% | stability of effective ingredient in medicinal preparations under ICH [4]: not sufficiently stable
SMILES: CCNC(=O)O/N=C/c1ccc([C@H]2C[C@@]3(C)[C@@H](CC[C@]3(COC)OC)[C@@H]3CCC4=CC(=O)CCC4=C32)cc1 [Micronizate]
